{"source": "patent US5563140A", "about": "“Use of 1-(aminoalkyl)-3-(benzyl)-quinoxaline-2-one derivatives for the preparation of neuroprotective compositions” (Phafag Aktiengesellschaft, priority 1991, dated 1996)", "key": {"glutamate receptors": {"system": "glutamate receptors", "test": "Microiontophoresis at inner hair cell synapse of guinea pig cochlea: glutamate-induced spike activity", "format": "in vivo, guinea pigs", "description": "The effectiveness of the 1-(aminoalkyl)-3-(benzyl)-quinoxaline-2-one derivatives as potential glutamate receptor antagonists was studied in the light of the neurotransmission between the inner hair cells (IHC) and the peripheral dendrites of the afferent neurons in the mammalian cochlea.\n(§1) Experiments were performed on adult pigmented guinea pigs (300-700 g) of both sexes, anaesthetized with a combination of Rompun (Bayer, Leverkusen, Germany) and Innovar-Vet (Pitman-Moore, Mundelin, Ill., U.S.A.). Supplementary low doses of pentobarbital (Nembutal, Abbott, Chicago, U.S.A.) were given periodically throughout the experiments. Rectal temperature was maintained within physiological limits. After tracheotomy for artificial respiration, the auditory bulla was approached ventrolaterally and the cochlea was exposed. A small opening was drilled into the cochlea bone over the pigmented stria vascularis and the ligamentum spiale of the third turn.\n(§2) The occurrence of phasic activity was used to identify the location precisely, since such activity occurs in the immediate vicinity of the initial postsynaptic structures.\nRecordings of extracellular action potentials were obtained using a 2M NaCl-filled barrel of the 5-barrel glass micropipette. […]"}, "[1]": {"test": "Side-effects on application, also in high doses", "format": "in vivo", "conditions": "Caroverine and its salts", "text": "Thus, it is experimentally established that 1-(aminoalkyl)-3-(benzyl)-quinoxaline-2-one derivatives are a potent, reversible and selective class of new glutamate receptor antagonists on the excitatory […] synapses of the cochlear inner hair cells."}, "tinnitus": {"system": "tinnitus", "test": "Pilot clinical study in patients suffering from tinnitus", "format": "in vivo", "conditions": "70-160 mg", "description": "The neuroprotective effect of Caroverine was tested in a clinical study with patients who suffered from tinnitus. The etiology of tinnitus can be very different in different patients. One of the most frequent tinnitus type is, however, the cochlear tinnitus. If a functional disturbance between the IHC and the peripheral dendrites of the […] neurons is deemed to be the initiating, etiological factor, then this is called a \"cochlear synaptic tinnitus\". A neuroprotective pharmaceutical like Caroverine should therefore have a positive effect on the cochlear synaptic tinnitus.\nIn a pilot study Caroverine was applied to 72 patients suffering from tinnitus. Caroverine was applied intravenously (160 mg/100 ml physiological NaCl-solution). The real dosage depended on the tinnitus reduction perceived by the individual patient and varied between 70 and 160 mg.\nThe effectiveness of Caroverine was measured by a subjective rating and tinnitus-matching before and after the infusion of the drug."}, "[2]": {"system": "membrane response to acetylcholine", "test": "Microiontophoresis at inner hair cell synapse of guinea pig cochlea: acetylcholine-induced firing (selectivity)", "format": "in vivo, guinea pigs", "conditions": "acetylcholine 60 nA; Caroverine 30 nA, FIG. 3", "description": "as §1, §2\nRecordings of extracellular action potentials were obtained using a 2M NaCl-filled barrel of the 5-barrel glass micropipette. […] Three other channels of the micropipette contained the solutions to be ejected microiontophoretically with the appropriate anionic and cationic currents: L-glutamic acid (0.5M, pH 3.5, adjusted with HCl); Caroverine-HCl (1-diethylaminoethyl-3-(p-methoxybenzyl)-1,2-dihydro-quinoxaline-2-one, 0.05M, natural pH=6.0). […]"}, "central nervous system": {"system": "central nervous system", "test": "Double-blind, placebo-controlled clinical study, EEG-mapping", "format": "in vivo, persons", "conditions": "40 mg or 80 mg, orally or intravenously", "description": "In a double-blind, placebo-controlled clinical study on a group of 15 persons, the cerebral effect of Caroverine was tested by means of electro-encephalogram (EEG)-mapping. The 15 caucasian probands were 7 females and 8 males between 20 and 35 years old (average 27 years). The weight ranged between 53 and 84 kg (average weight: 69 kg) and the height varied between 162 to 186 cm (average height: 175 cm).\nDoses of 40 mg or 80 mg of Caroverine or placebo were administered either orally or intravenously for random sampling to the persons in weekly intervals. EEG-tracings as well as recordings of pulse, blood pressure and side effects were carried out 0, 1, 2, 4, 6 and 8 hours after medication."}}}
{"compound": "CCN(CC)CCn1c(=O)c(Cc2ccc(O)cc2)nc2ccccc21", "note": "[1-diethylaminoethyl-3-(p-hydroxy)-1,2-dihydroquinoxaline-2-one]", "values": [{"measurement": "effectiveness as glutamate receptor antagonist", "setting": "glutamate receptors; cochlear inner hair cell synapses", "result": "effective"}]}
{"compound": "CCN(CC)CCn1c(=O)c(Cc2ccc(OC)cc2)nc2ccccc21", "note": "[Caroverine]", "values": [{"measurement": "side-effects", "setting": "[1]", "result": "no critical side-effects"}, {"measurement": "patients noting a tinnitus reduction of at least 50% in absolute value", "setting": "tinnitus; immediately after intravenous infusion, 72 patients", "result": 66.7, "unit": "%"}, {"measurement": "side-effects", "setting": "tinnitus; intravenous infusion", "result": "No sincere side-effects"}, {"measurement": "effect on acetylcholine-induced firing rate", "setting": "[2]", "result": "no effect"}, {"measurement": "time of maximum effect after medication", "setting": "central nervous system", "result": "around 1 hour"}]}
{"compound": "N[C@@H](CCC(=O)O)C(=O)O", "note": "[Glutamate, L-glutamic acid]", "values": [{"measurement": "effect on firing rate of fibers in the synaptic region of IHC", "setting": "glutamate receptors; agonist alone, n=29 out of 31 fibers", "result": "enhances the firing rate"}]}
